We go through two compounds from patent publication US11737955B2, “Multi-functional micro and nanoparticles for use in root canal therapies” (THE GOVERNING COUNCIL OF THE UNIVERSITY OF TORONTO, priority 2012, dated 2023).

The subject of series [1] is E. faecalis biofilm. Kind of series: Uptake of photosensitizers by E. faecalis biofilm. It counts as cell-based, E. faecalis (ATCC 29212). As to conditions: 15 min incubation, 7 day old biofilm. Here is the method: The uptake of Rose Bengal, methylene blue and chitosan polymer-Rose Bengal nanoparticles was evaluated on biofilm forms of E. faecalis. A seven day old biofilm of E. faecalis (ATCC 29212) was grown in 24 multi-well plates. 1 mL of overnight E. faecalis culture was added into each well of the multi-well plates and incubated at 37° C., 100 rpm. Fresh media was replenished every 48 hours to provide a constant supply of nutrients and to remove dead bacterial cells. On the eighth day, the media was removed from the wells, and the biofilm was carefully washed once with sterile deionized-water. Different concentrations of chitosan polymer-Rose Bengal nanoparticles (0.3, 0.5 & 1 mg/mL) and MB and Rose Bengal (10, 25, 50 & […]) were added to the biofilm and incubated at 37° C. for 15 min, protected from ambient light. Three samples were used for each concentration. Excess photosensitizer solutions were removed leaving behind the bound Rose Bengal, MB and chitosan polymer-Rose Bengal nanoparticles in biofilm and washed once. The biofilm bacteria were treated with 1 mL of 2% SDS for 20 h in order to extract the cell-bound photosensitizers. The biofilms were disrupted and collected in eppendorf tubes. The biofilm bacteria were centrifuged (3000 rpm, 10 min) and the supernatant solution was taken for photosensitizer quantification. Quantification of photosensitizer was done spectrophotometrically (Epoch, Biotek, USA) at the absorption maxima of the Rose Bengal (540 nm). Calibration curves were constructed for each Rose Bengal in 2% SDS. Uptake values were obtained as the total Rose Bengal and MB concentrations (μM) extracted from both the 1 mL of planktonic and biofilm bacteria.

For series [2], the system named is NIH 3T3 mouse fibroblast cells. Kind of series: Cytotoxicity, MTT assay with and without photodynamic therapy. It counts as cell-based. The procedure: To evaluate cytotoxicity approximately 1×10^5 NIH 3T3 mouse fibroblast cells (American Type Culture Collection CCL 1, Rockville, Md.) were seeded into 24 well plates in Dulbecco's Modified Eagle medium (DMEM) supplemented with 10% Bovine Serum and antibiotics and incubated for 48 hrs in 5% CO2 incubator (Thermo Electron Corporation, USA). After incubation, chitosan polymer-Rose Bengal nanoparticles and Rose Bengal dissolved in DMEM were added into the cells and incubated for 15 min in dark. The cells were irradiated with a white light source and a 540 nm fiber (Lumacare Inc) for a total dose of 20 J/cm^2. Rose Bengal and chitosan polymer-Rose Bengal nanoparticles were also tested without irradiation. […]
The supernatant media was removed without disturbing the cell line, and the cell layer was washed with 1 mL of phosphate-buffered saline. Cell survival was determined by the standard 3-(4, 5-dimethylthiazol-2-yl)-2, 5-diphenyltetrazolium bromide (MTT) assay (Sigma Aldrich) that determines the mitochondrial activity. […] The absorbance at 540 nm was measured photometrically by using a UV-visible spectrophotometer (Epoch, Biotek, USA). Percentage survival was calculated based on control sample without any treatment as 100%. All analyses were repeated three times in triplicate, and the statistical significance was analyzed by one-way analysis of variance.
On the technique in general: Tetrazolium dyes change colour on reduction, which living cells bring about.

The subject of series [3] is planktonic E. faecalis. Kind of series: Antibacterial efficacy on planktonic bacteria (CFU count). The class given is cell-based, E. faecalis (ATCC 29212). The settings on record: 540 nm, 15 min sensitization. Here is the method: E. faecalis (ATCC 29212) was used to test the antibacterial efficacy of Rose Bengal and chitosan polymer-Rose Bengal nanoparticles in both planktonic and biofilm forms. Planktonic cell pellets (10^9 cells/mL) were obtained and the cell pellets treated with 1 mL of Rose Bengal (10 μM) and chitosan polymer-Rose Bengal nanoparticles (0.1 & 0.3 mg/mL), at 37° C. for 15 min, in the manner previously described and protected from ambient light to allow sensitization. Dark toxicity was evaluated after 15 min of sensitization with the two treatment solutions. In the case of photodynamic therapy, the photosensitizer solutions were removed leaving a thin smear at the bottom of the eppendorf tubes. The sensitized planktonic-bacteria were irradiated using a 540 nm fiber with doses of 2 and 5 J/cm^2. After treatment, cell pellets were resuspended in sterile deionized-water (1 mL) and 100 μL of the suspension was plated in freshly poured BHI agar plates after serial dilution. Colonies were counted after 24 hours of incubation at 37° C. and expressed as log colony forming units (CFU) per mL.

For series [4], the system named is E. faecalis biofilm. In words: Antibacterial efficacy on 7-days old biofilm (CFU count). It counts as cell-based, E. faecalis (ATCC 29212). Here is the method: In order to test the antibacterial-efficacy of nanoparticulates on bacterial-biofilm, 7-days old biofilm of E. faecalis (ATCC 29212) was grown in well of multiwell-plates as mentioned above. On the eighth day, the media was removed from the wells, and the biofilm was carefully washed once with sterile deionized-water. The biofilm-bacteria was treated with chitosan polymer-Rose Bengal nanoparticles and Rose Bengal and exposed to photodynamic therapy with different doses. Sensitization was done using 1 mL of Rose Bengal (10 μM) and chitosan polymer-Rose Bengal nanoparticles (0.1 & 0.3 mg/mL) at 37° C. for 15 min, protected from ambient light. Subsequently, the excess photosensitizer solutions were removed leaving behind the bound chitosan polymer-Rose Bengal nanoparticles and Rose Bengal. Dark toxicity was evaluated after sensitization period with the two treatment solutions. In case of photodynamic therapy, the sensitized biofilm-bacteria were irradiated using a 540 nm fiber with dosage of 20, 40 and 60 J/cm^2; and fractionated dosage of 10 and 20 J/cm^2 twice. After treatment, the biofilms were washed gently and 1 mL of sterile deionized-water was added. […] Colonies were counted after 24 hours of incubation at 37° C. and expressed as log colony forming units (CFU) per mL. The experiments were carried out in triplicates and the mean values were calculated.

Series [5] has as its system E. faecalis biofilm. In words: Biofilm structure by confocal laser scanning microscopy. It counts as cell-based, E. faecalis (ATCC 29212). Here is the method: The structure of the 7-days old biofilm following treatment with nanoparticulates was assessed using confocal-laser-scanning-microscopy (CLSM). E. faecalis (ATCC 29212) biofilm was grown on a glass bottom culture dishes. Following treatment with Rose Bengal (10 μM) and chitosan polymer-Rose Bengal nanoparticles (0.3 mg/mL) the as mentioned above, biofilms were washed with 1 mL of sterile deionized-water. The biofilms were then stained with 200 μL, of Live/Dead® Baclight™ stain (Molecular Probes, Eugene, Oreg.) and incubated in the dark for 10 minutes. The biofilm-structures were then viewed under spinning disk confocal-laser-scanning microscopy (Olympus, Japan). Kr/Ar laser was the source of illumination with 488 nm excitation and long-pass 500-523 nm and 622-722 nm emission filter settings for green and red signals respectively. Nine different areas were imaged from each sample using a 60× oil objective. The optical sections of the biofilm-structure were first recorded then subsequently analyzed using Velocity® software. Student t-test was used to compare the thickness of the biofilm before and after nanoparticulates treatment.

Series [6] deals with planktonic E. faecalis. In words: Membrane integrity of planktonic bacteria (release of cell constituents, OD260). The settings on record: following photodynamic therapy, 5 J/cm^2, 540 nm. The class given is cell-based, E. faecalis (ATCC 29212). The procedure:
Leakage of cytoplasmic contents (DNA) is a characteristic indication of damage to the bacterial cytoplasmic membrane. Absorbance at 260 nm was used to estimate the amount of intracellular contents leaked from bacteria subjected to different photosensitizers and photodynamic therapy. E. faecalis (ATCC 29212) was incubated overnight at 37° C. under agitation in the Brain-Heart Infusion (BHI) medium (Sigma, USA). The culture was centrifuged (4000 rpm, 10 min, 4° C.), supernatants discarded and washed twice in sterile deionized water (DIW). The cells were resuspended in deionized water and adjusted to 10^7 CFU/mL (optical density 0.7) at 600 nm. The cell suspension (1 mL) was then added into eppendorf tubes and centrifuged. The supernatants were discarded and the cell pellets were treated with different photosensitizer solutions and maintained at 37° C. for 15 min, protected from ambient light. The kinetics of release of intracellular contents, treated bacterial cells were filtered (0.2 μm pore size, Pall) and absorbance of the filtrate recorded at 260 nm (OD260). For photodynamic therapy, the photosensitized cells were centrifuged and cell pellets irradiated (5 J/cm^2, 540 nm). The % change in OD260 at 15 min post sensitization and after irradiation with 5 J/cm^2 was calculated with respect to the OD260 of the sample measured at 0 min.

With `CN(C)c1ccc2nc3ccc(=[N+](C)C)cc-3sc2c1` [MB, methylene blue], the “Biofilm E. faecalis photosensitizer uptake/mL of cells” value in series [1] (photosensitizer 10 μM) amounted to 0.96 ± 0.07 µM; in series [1] (photosensitizer 25 μM), 1.75 ± 0.21 µM; in series [1] (photosensitizer 50 μM), 3.15 ± 0.16 µM; in series [1] (photosensitizer 100 μM), 5.07 ± 0.19 µM.

On to `O=C1OC2(c3cc(I)c(O)c(I)c3Oc3c2cc(I)c(O)c3I)c2c(Cl)c(Cl)c(Cl)c(Cl)c21` [RB, Rose Bengal], for which, in series [2] (NIH 3T3, 540 nm, 20 J/cm^2), the “cell survival after photodynamic therapy” value is recorded as “further reduction of cell survival”. Besides, the dark toxicity entry in series [2] (NIH 3T3, 15 min exposure, no irradiation) is on record as “higher dark toxicity”. For the same compound, the “light dose giving complete planktonic bacterial killing” value in series [3] came out at 5 J/cm^2. For the same compound, the “Biofilm E. faecalis photosensitizer uptake/mL of cells” value was found to be 2.72 ± 0.15 µM in series [1] (photosensitizer 10 μM), 2.80 ± 0.09 µM in series [1] (photosensitizer 25 μM), 3.01 ± 0.11 µM in series [1] (photosensitizer 50 μM) and 3.68 ± 0.17 µM in series [1] (photosensitizer 100 μM). Also, in series [4] (fractionated photodynamic therapy, CSRBnp 0.3 mg/mL, Rose Bengal 10 μM), the “elimination of biofilm bacteria” value is recorded as “not with Rose Bengal”. The killing of biofilm-bacteria entry in series [4] (photodynamic therapy at 60 J/cm^2) was “did not show complete killing”. In addition, in series [5] (after PD treatment (irradiation)), the biofilm architecture entry is given as “not disrupted”. In series [5] (after PD treatment, Rose Bengal 10 μM, CSRBnp 0.3 mg/mL, untreated 39.2±7.3), this compound yielded a thickness of the biofilm of 21.5 ± 9.57 µm. Besides, in series [6], the “release of cell constituents (absorbance at 260 nm)” value was “increased absorbance at 260 nm”.
